The term viability, T/C denotes the ratio of treated to control. A word on the IC50: it is the midpoint of a concentration-inhibition curve.

The source of these data is PubChem BioAssay AID1963860 (Molecular Pharmacology Branch, DTP, NCI, 2024).

In this test the test system is CN0375-F725-PDC KRAS spheroid viability. Kind of test: Anticancer human tumor CN0375-F725-PDC patient-derived colon carcinoma cell line growth inhibition [KRAS2]. The conditions noted are these: spheroids with HUVEC and MSC; for viability, T/C: stronger effect = lower value. The text has this: Multicellular complex tumor spheroid response to RAS pathway inhibitors in combination with a targeted agents in patient-derived cell lines with oncogenic KRAS variants from multiple cancer types
A high-throughput screen of multi-cell type tumor spheroids was designed to identify active combinations of targeted small molecules and KRAS pathway inhibitors. Complex spheroids include a stromal component modeled by human endothelial cells (HUVEC) and fibroblasts modeled by human mesenchymal stem cells (MSCs). The concentration ranges selected for each drug and investigational agent were based upon clinically achievable concentrations if the clinical Cmax of the agent was known.
Compounds. The drugs and investigational agents: BI-3406 (NSC825286), BAY-293 (NSC824723), batoprotafib (TNO155; NSC825523), sotorasib (AMG 510; NSC818433), MRTX1257 (NSC819558), elimusertib (BAY 1895344; NSC800525), molibresib (GSK525762; NSC774829), temuterkib (LY3214996; NSC803410), venetoclax (NSC766270), alisertib (NSC759677), olaparib (NSC753686), talazoparib (NSC767125), erdafitinib (NSC781556), ipatasertib (NSC767898), cabozantinib (NSC761068), nintedanib (NSC756659), abemaciclib (NSC768073), docetaxel (NSC628503), trametinib (NSC758246), and sapanisertib (NSC764658) were obtained from the National Cancer Institute (NCI) Developmental Therapeutics Program Chemical Repository. The FDA-approved anticancer drug set is available from the Developmental Therapeutics Program. […] The stock solutions were prepared in dimethyl sulfoxide (DMSO, Sigma-Aldrich, St. Louis, MO, cat. D2650) at 800-fold the tested concentration and stored at -70 degrees C prior to their use. All drugs and investigational agents were tested over a range starting from a high concentration at or near the clinical Cmax and decreasing in half-log increments. If the clinical Cmax for an agent had not been determined, the highest concentration tested was 10 microM.
Cell Culture. All cells were maintained in an incubator at 37 degrees C and 5% CO2 with 95% humidity. The PDC lines were cultured according to standard operating procedures established by the NCI PDMR (https://pdmr.cancer.gov/sops/default.htm). Briefly, all PDCs were thawed and cultured in Matrigel-coated flasks prepared with a working solution of 1X Ham's F-12 nutrient mix, without supplementation (Invitrogen, Waltham, MA, cat. 11765054), 100 U/mL penicillin-streptomycin (Invitrogen, cat. 15140122), and 2.5% Matrigel (Corning Inc., Corning, NY, cat. 354248) for the first three passages. All PDCs were cultured in complete DMEM/F-12 media containing advanced DMEM/F-12 (Invitrogen, cat. 12634028), 4.9% defined fetal bovine serum, heat inactivated (HyClone Laboratories Inc., Logan, UT, cat. SH30070.03HI), 389 ng/mL hydrocortisone (Sigma-Aldrich, cat. H4001), 9.7 ng/mL human EGF recombinant protein (Invitrogen, cat. PHG0313), 23.4 microg/mL adenine (Sigma-Aldrich, cat. A2786), 97.3 U/mL penicillin-streptomycin (Invitrogen, cat. 15140122), 1.9 mM L-glutamine (Invitrogen, cat. 25030081), and 9.7 microM Y-27632 dihydrochloride (Tocris Bioscience, Bristol, United Kingdom, cat. 1254). The PDCs were cultured in complete DMEM/F12 media without 9.7 microM Y-27632 dihydrochloride for at least two passages prior to the screen. The established cell line HOP-62 was cultured in RPMI 1640 medium, HEPES (Invitrogen, cat. 22400105) with 10% defined fetal bovine serum (HyClone Laboratories Inc., cat. SH30070.03) and 2 mM L-glutamine (Invitrogen, cat. 25030081). The pooled donor HUVEC were cultured in endothelial cell growth medium 2 (PromoCell, Heidelberg, Germany, cat. C-22011) and the hMSC were cultured in mesenchymal stem cell growth medium 2 (PromoCell, cat. C-28009). For all experiments, HUVEC and hMSC were used at passages </=5, while the malignant cell lines were used at passages </=15. […]

The mark [1] stands for this setting: compound alone, run of 08/26/2021.
The mark [2] stands for this setting: compound alone, run of 09/02/2021.

“And” between values parts separate entries of the source, which are not always exact repeats. Equal values may be shown once.
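Note: spheroids exposed to agents for 7 days.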

For `C=CC(=O)N1CCN(c2nc(OCC3CCCN3C)nc3c2CCN(c2cccc4cccc(C)c24)C3)CC1CC#N` (centres undefined), the viability, T/C is, setting by setting: (compound 0.0316 µM) 100% [middle of 17 runs]; (compound 0.1 µM) 100% [middle of 17 runs]; (compound 0.316 µM) 98.1% [middle of 17 runs]; (compound 1 µM) 92.7% [middle of 17 runs]. For the same molecule, the IC50 under setting [1] is 1.82 µM [middle of 5 runs] and the IC50 under setting [2] is 2.09 µM [middle of 5 runs].

As to `CC(=O)Nc1cccc(-n2c(=O)n(C3CC3)c(=O)c3c(Nc4ccc(I)cc4F)n(C)c(=O)c(C)c32)c1`, the viability, T/C by setting is: (compound 0.0001 µM) 97.8% [middle of 5 runs]; (compound 0.000316 µM) 84.8% [middle of 5 runs]; (compound 0.001 µM) 71.6% [middle of 5 runs]; (compound 0.00316 µM) 59.6% [middle of 5 runs]; (compound 0.01 µM) 47.5% [middle of 5 runs]; (compound 0.0316 µM) 34.5% [middle of 5 runs]. Where the note is “curve of compound”, the IC50 was 7.97 nM [middle of 5 runs].

With `CC(=O)OC12COC1CC(O)C1(C)C(=O)C(O)C3=C(C)C(OC(=O)C(O)C(NC(=O)OC(C)(C)C)c4ccccc4)CC(O)(C(OC(=O)c4ccccc4)C21)C3(C)C` (centres undefined), the viability, T/C by setting is: (compound 0.01 µM) 101% [middle of 5 runs]; (compound 0.0316 µM) 97.7% [middle of 5 runs]; (compound 0.1 µM) 89.3% [middle of 5 runs]; (compound 0.316 µM) 89% [middle of 5 runs]; (compound 1 µM) 83.2% [middle of 5 runs]; (compound 3.16 µM) 80.8% [middle of 5 runs]. The IC50 (curve of compound) is more than 3.16 µM.

For `CC(C)n1nc(-c2ccc3oc(N)nc3c2)c2c(N)ncnc21`, the viability, T/C by setting is: (compound 0.000316 µM) 97.5% [middle of 5 runs]; (compound 0.001 µM) 93.1% [middle of 5 runs]; (compound 0.00316 µM) 79% [middle of 5 runs]; (compound 0.01 µM) 70.7% [middle of 5 runs]; (compound 0.0316 µM) 55.5% [middle of 5 runs]; (compound 0.1 µM) 45.2% [middle of 5 runs]. The IC50 (curve of compound) was 64.7 nM [middle of 5 runs].

For the molecule `CC1(C)CCC(CN2CCN(c3ccc(C(=O)NS(=O)(=O)c4ccc(NCC5CCOCC5)c([N+](=O)[O-])c4)c(Oc4cnc5[nH]ccc5c4)c3)CC2)=C(c2ccc(Cl)cc2)C1`, the viability, T/C is 106% [middle of 5 runs] (compound 0.0316 µM); 102% [middle of 5 runs] (compound 0.1 µM); 106% (3×) and 95.8% and 104% (compound 0.316 µM); 104% [middle of 5 runs] (compound 1 µM); 67.7% [middle of 5 runs] (compound 3.16 µM).

For the molecule `CC1COCCN1c1cc(-c2ccnn2C)c2ccnc(-c3ccn[nH]3)c2n1` (centres undefined), the viability, T/C reads like this: (compound 0.01 µM) 105% [middle of 5 runs]; (compound 0.0316 µM) 97.3% [middle of 5 runs]; (compound 0.1 µM) 90.8% [middle of 5 runs]; (compound 0.316 µM) 85.7% [middle of 5 runs]; (compound 1 µM) 72.1% [middle of 5 runs]; (compound 3.16 µM) 58.4% [middle of 5 runs]. Besides, under “curve of compound”, the IC50 was more than 3.16 µM.

With `CC1OCC2(CCN(c3cnc(Sc4ccnc(N)c4Cl)c(N)n3)CC2)C1N` (centres undefined), the viability, T/C is 98.4% and 98.5% and 100% (compound 0.0316 µM); 94.9% [middle of 19 runs] (compound 0.1 µM); 89.6% [middle of 19 runs] (compound 0.316 µM); 78.7% [middle of 20 runs] (compound 3.16 µM). Moreover, the IC50 (compound alone, run of 08/19/2021) is more than 10 µM; the IC50 under setting [1] is more than 10 µM; the IC50 under setting [2] is more than 10 µM; the IC50 (curve of compound) is more than 10 µM.

For `CCN1CCN(Cc2ccc(Nc3ncc(F)c(-c4cc(F)c5nc(C)n(C(C)C)c5c4)n3)nc2)CC1`, the viability, T/C (compound 0.00316 µM) is 102% [middle of 5 runs]; the viability, T/C (compound 0.01 µM) is 95.6% [middle of 5 runs]; the viability, T/C (compound 0.0316 µM) is 91.2% [middle of 5 runs]; the viability, T/C (compound 0.1 µM) is 97.8% [middle of 5 runs]; the viability, T/C (compound 0.316 µM) was 107% [middle of 5 runs]; the viability, T/C (compound 1 µM) was 101% [middle of 5 runs]. In addition, for the setting “curve of compound”, the IC50 is more than 1 µM.

As to `CCNC(=O)CC1N=C(c2ccc(Cl)cc2)c2cc(OC)ccc2-n2c(C)nnc21` (centres undefined), the viability, T/C is 100% [middle of 5 runs] (compound 0.0316 µM); 97.1% [middle of 5 runs] (compound 0.1 µM); 90.4% [middle of 5 runs] (compound 0.316 µM); 84.2% [middle of 5 runs] (compound 1 µM); 74.3% [middle of 5 runs] (compound 3.16 µM); 58.6% [middle of 5 runs] (compound 10 µM). Besides, the IC50 (curve of compound) is more than 10 µM.

Consider `CN(C)C/C=C/C(=O)Nc1cc2c(Nc3ccc(F)c(Cl)c3)ncnc2cc1O[C@H]1CCOC1`, for which the viability, T/C was 105% [middle of 5 runs] (compound 0.000316 µM); 94.1% [middle of 5 runs] (compound 0.001 µM); 90.4% [middle of 5 runs] (compound 0.00316 µM); 88.3% [middle of 5 runs] (compound 0.01 µM); 79.2% [middle of 5 runs] (compound 0.0316 µM); 81.1% [middle of 5 runs] (compound 0.1 µM). Also, the IC50 (curve of compound) is more than 0.1 µM.

Consider `COc1cc(Nc2ncc3c(n2)-c2ccc(Cl)cc2C(c2c(F)cccc2OC)=NC3)ccc1C(=O)O`, for which the viability, T/C reads like this: (compound 0.0316 µM) 102% [middle of 5 runs]; (compound 0.1 µM) 101% [middle of 5 runs]; (compound 0.316 µM) 93.7% [middle of 5 runs]; (compound 1 µM) 96.3% [middle of 5 runs]; (compound 3.16 µM) 94.8% [middle of 5 runs]; (compound 10 µM) 78.3% [middle of 5 runs]. For the setting “curve of compound”, the IC50 is more than 10 µM.

In the case of `Cn1nccc1Nc1nccc(-c2cc3c(s2)C(C)(C)N(CCN2CCOCC2)C3=O)n1`, the viability, T/C was 104% [middle of 5 runs] (compound 0.0316 µM); 90% [middle of 5 runs] (compound 0.1 µM); 77.5% [middle of 5 runs] (compound 0.316 µM); 72.3% [middle of 5 runs] (compound 1 µM); 56.5% [middle of 5 runs] (compound 3.16 µM); 44.6% [middle of 5 runs] (compound 10 µM). Further, the half-maximal inhibitory concentration (IC50) (curve of compound) is 5.56 µM [middle of 5 runs].

As to `Cn1ncnc1[C@H]1c2n[nH]c(=O)c3cc(F)cc(c23)N[C@@H]1c1ccc(F)cc1`, the viability, T/C was 107% [middle of 5 runs] (compound 0.000316 µM); 102% [middle of 5 runs] (compound 0.001 µM); 99.8% [middle of 5 runs] (compound 0.00316 µM); 101% [middle of 5 runs] (compound 0.01 µM); 102% [middle of 5 runs] (compound 0.0316 µM); 96% [middle of 5 runs] (compound 0.1 µM). For the same molecule, the IC50 (curve of compound) was more than 0.1 µM.
